Measurements as given in the NIST ThermoML archive (doi:10.1016/j.jct.2012.11.011).
Numbers after ± are expanded uncertainties.

Test: xn = mol fraction of the nth substance listed
Details: Liquid, Vibrating tube method

COC(=O)OC [dimethyl carbonate] + CCCCCCCC
mass density [kg/m3]
Details	x1 = 0.0535	x1 = 0.0978	x1 = 0.3935	x1 = 0.496	x1 = 0.5475	x1 = 0.5937	x1 = 0.7002	x1 = 0.8013	x1 = 0.8979	x1 = 0.9502
288.15 K, 100 kPa	716.4 ± 0.3	723.8 ± 0.3	791.6 ± 0.3	822.9 ± 0.3	840.9 ± 0.3	854.9 ± 0.3	899.6 ± 0.3	941.7 ± 0.3	1005 ± 0.3	1036.8 ± 0.4
288.15 K, 5000 kPa	719.8 ± 0.4	727.9 ± 0.3	796.9 ± 0.3	827.5 ± 0.3	844.6 ± 0.3	862 ± 0.3	904.6 ± 0.3	952.4 ± 0.3	1009 ± 0.3	1043.2 ± 0.4
288.15 K, 10000 kPa	723.6 ± 0.4	731.9 ± 0.4	801.1 ± 0.4	831.8 ± 0.4	849 ± 0.4	866.2 ± 0.4	908.9 ± 0.4	956.9 ± 0.4	1013.3 ± 0.4	1047.5 ± 0.4
288.15 K, 20000 kPa	730.9 ± 0.5	739.3 ± 0.5	808.8 ± 0.4	839.6 ± 0.4	857 ± 0.4	874.3 ± 0.4	917 ± 0.4	965 ± 0.4	1021.7 ± 0.4	1055.7 ± 0.4
288.15 K, 30000 kPa	737.5 ± 0.6	745.8 ± 0.5	816 ± 0.5	846.9 ± 0.4	864.3 ± 0.4	881.6 ± 0.4	924.4 ± 0.4	972.5 ± 0.4	1029.1 ± 0.4	1063.1 ± 0.4
288.15 K, 40000 kPa	743.7 ± 0.6	752 ± 0.6	822.8 ± 0.5	853.8 ± 0.5	871.2 ± 0.5	888.7 ± 0.4	931.6 ± 0.4	979.7 ± 0.4	1036.3 ± 0.4	1070.4 ± 0.4
298.15 K, 100 kPa	707.4 ± 0.3	715.3 ± 0.3	782.6 ± 0.3	812.6 ± 0.3	829.5 ± 0.3	846.5 ± 0.3	888.6 ± 0.3	936 ± 0.3	992.1 ± 0.3	1025.9 ± 0.4
298.15 K, 5000 kPa	712.2 ± 0.4	720.2 ± 0.4	787.8 ± 0.3	817.9 ± 0.3	834.9 ± 0.3	851.7 ± 0.3	893.9 ± 0.3	941.4 ± 0.3	997.3 ± 0.3	1031.1 ± 0.4
298.15 K, 10000 kPa	715.9 ± 0.4	724.1 ± 0.4	791.8 ± 0.4	822 ± 0.4	839 ± 0.4	856.1 ± 0.4	898.1 ± 0.4	945.6 ± 0.3	1001.5 ± 0.3	1035.3 ± 0.4
298.15 K, 20000 kPa	723.6 ± 0.5	731.7 ± 0.5	800.1 ± 0.4	830.4 ± 0.4	847.5 ± 0.4	864.6 ± 0.4	906.8 ± 0.4	954.2 ± 0.4	1010.1 ± 0.3	1043.7 ± 0.4
298.15 K, 30000 kPa	730.5 ± 0.6	738.7 ± 0.6	807.7 ± 0.5	838.1 ± 0.4	855.3 ± 0.4	872.4 ± 0.4	914.8 ± 0.4	962.1 ± 0.4	1018 ± 0.4	1051.7 ± 0.4
298.15 K, 40000 kPa	736.8 ± 0.7	745.1 ± 0.6	814.6 ± 0.5	845.1 ± 0.5	862.5 ± 0.5	879.6 ± 0.4	922 ± 0.4	969.7 ± 0.4	1025.6 ± 0.4	1059.1 ± 0.4
308.15 K, 100 kPa	699.2 ± 0.3	706.9 ± 0.3	772.9 ± 0.3	802.3 ± 0.3	819 ± 0.3	835.7 ± 0.3	877.3 ± 0.3	924.1 ± 0.3	979.6 ± 0.3	1013.1 ± 0.4
308.15 K, 5000 kPa	704 ± 0.4	711.8 ± 0.4	778.1 ± 0.3	807.6 ± 0.3	824.2 ± 0.3	841 ± 0.3	882.6 ± 0.3	929.2 ± 0.3	984.6 ± 0.3	1018.1 ± 0.4
308.15 K, 10000 kPa	708.3 ± 0.4	716.2 ± 0.4	782.8 ± 0.4	812.4 ± 0.4	829.1 ± 0.4	845.9 ± 0.4	887.5 ± 0.3	934.4 ± 0.3	989.6 ± 0.3	1023.1 ± 0.4
308.15 K, 20000 kPa	716.3 ± 0.5	724.3 ± 0.5	791.5 ± 0.4	821.3 ± 0.4	838.1 ± 0.4	854.9 ± 0.4	896.6 ± 0.4	943.4 ± 0.4	998.7 ± 0.3	1032.1 ± 0.4
308.15 K, 30000 kPa	723.7 ± 0.6	731.6 ± 0.6	799.6 ± 0.5	829.5 ± 0.5	846.4 ± 0.4	863.3 ± 0.4	905 ± 0.4	951.9 ± 0.4	1007.1 ± 0.3	1040.4 ± 0.4
308.15 K, 40000 kPa	730.4 ± 0.7	738.4 ± 0.7	806.9 ± 0.5	836.9 ± 0.5	853.9 ± 0.5	870.8 ± 0.5	912.8 ± 0.4	959.7 ± 0.4	1015 ± 0.4	1048.3 ± 0.4
